“Also recorded” adds a separate entry of the source.
Assays:
[1] = system: Streptococcus mutans biofilm; assay: Streptococcus mutans monospecies biofilm model, PDT with indocyanine green, viability by serial dilution CFU; assay type: cell-based, Streptococcus mutans (ATCC 25175); conditions: 250 μg/ml ICG with 810 nm light
Description: Two separate monospecies biofilm model experiments were performed to study the effect of reoccurring photodynamic therapy on biofilm formation. The Streptococcus mutans biofilm experiments were divided in different classes based on biofilm age and the therapy given.
The one-time PDT treatment was performed for 1 day, 2 days and 4 days old biofilms. […] The viability of the bacteria was assessed by serial dilution CFU method which was performed after the last photodynamic therapy treatment.
Streptococcus mutans (ATCC 25175) bacteria was grown over 18 h in growth chamber (36° C., 5% CO2) in BHI-broth (Bio-Rad 3564014). The resulting bacteria suspension was diluted with 0.9% NaCl suspension to optical density of 0.46.
Biofilm was grown on bottom of well plate by adding 100 ul diluted Streptococcus mutans suspension in each well with 100 μl of BHI-broth growth medium. The bacteria plate was incubated in growth chamber (36 Celsius, 5% CO2) and BHI-broth medium changed daily.
Before the light exposure, the growth medium was replaced with indocyanine green suspension which was let to incubate in dark in room temperature for 10 minutes. […] The treatment time was calculated from desired light amount and known intensity.
The light exposure was performed by placing the well plate under known LED light source. The given light intensity was analyzed with Thorlabs PM100D and S121C sensor head. […]

[2] = system: Streptococcus mutans biofilm; assay: Potentiation of chlorhexidine with dual wavelength PDT; assay type: cell-based; conditions: versus reference and treatment with only one wavelength; FIG. 3
Excerpt: Treatment can be combined with use of antibiotics and disinfectants for synergist antipathogen effect. For example, the use phototherapy with chlorhexidine to target biofilms is new to oral disinfection. The results of dual wavelength photodynamic therapy with chlorhexidine against Streptococcus mutans biofilm shown in appendix III are completely new. […] The effectivity is based on photon and anionic photosensitizer ability to penetrate deeper into biofilm and provide efficient bacteria killing inside the biofilm as well as on the surface. The chlorhexidine effect is mostly present only on the surface of the biofilm. High energy photons reduce the biofilm EPS matrix formation that further increases the chlorhexidine effectivity in subsequent treatments. In a second series of tests, potentiation of chlorhexidine with dual wavelength PDT was evaluated.

[3] = system: monospecies biofilm of Streptococcus sobrinus; conditions: monospecies biofilm vs planktonic form; cited from earlier work

| Compound | effect of PDT treatment on biofilm (CFU) ([1]; single wavelength, 4 days old biofilm treated every day) | effect of PDT treatment on biofilm (CFU) ([1]; treatment given once to 1, 2 and 4 days old biofilms) | antimicrobial effect of chlorhexidine combined with multi (dual) wavelength PDT [2] | greater concentration needed to kill biofilm than planktonic counterpart [3] [time] |
| --- | --- | --- | --- | --- |
| CC1(C)C(/C=C/C=C/C=C/C=C2\N(CCCCS(=O)(=O)O)c3ccc4ccccc4c3C2(C)C)=[N+](CCCCS(=O)(=O)[O-])c2ccc3ccccc3c21 [ICG, Indocyanine Green] | poor treatment effect | strong effect |  |  |
| [H]/N=C(\N/C(=N/[H])NCCCCCCNC(=N)NC(=N)Nc1ccc(Cl)cc1)Nc1ccc(Cl)cc1 [chlorhexidine] |  |  | increased substantially; also recorded: much stronger effect | 100 |
| amine fluoride |  |  |  | 100 |

Source: patent US20220167853A1, “Method for plaque detection” (Koite Health Oy, priority 2019, published 2022)
